Legend:
[1] = Solubility of antioxidants in 2-ethylhexanol; conditions: 25° C., amount varied from 100 ppm to 1,000 ppm
Procedure: The solubility of different antioxidants in oxo alcohol was analyzed. Alkanox™ 240, Lowinox™ CA22, and Anox™ 1315, were added to 2-ethylhexanol.

[2] = Color analysis of plasticizers made from 2-ethylhexanol with antioxidant (Platinum-Cobalt Scale, ASTM D1209); format: physicochemical
Procedure: The oxo alcohol 2-ethylhexanol was mixed with different antioxidants (Anox™ 1315 and Lowinox™ CA22). Plasticizers dioctyl phthalate (DOP) and/or trioctyl trimellitate (TOTM) were then synthesized using the different 2-ethylhexanol mixtures. The DOP plasticizer was produced using a 2-ethylhexanol to phthalic acid molar ratio of 2.35 to 1. The TOTM plasticizer was produced using a 2-ethylhexanol to […] molar ratio of 3.5 to 1. The plasticizers were synthesized a temperature of 210° C. for a period of 4 hours. Phosphorous-based antioxidants, nitrogen-based antioxidants, and sulfur-based antioxidants were all found to be problematic. For example, it was observed during downstream application that when phosphorus-based antioxidants were used, initially poor solubility in the oxo alcohol was a problem and then corrosion of the reactor. Not to be limited by theory, it is believed that during the production of the plasticizers, the phosphorus-based antioxidant would be hydrolyzed, producing phosphorus acid, which corroded the reactor. Nitrogen-based antioxidants and sulfur-based antioxidants, on the other hand, adversely affected the color of the resultant plasticizers.
Color analysis of the resulting plasticizers was conducted using the Platinum-Cobalt Scale in accordance with ASTM D1209, as updated in 2011. The best in class specification for TOTM plasticizer is a score of 30 and for the DOP plasticizer is a score of 25 on the Platinum-Cobalt scale. As is shown in Table 3, trioctyl trimellitate and dioctyl phthalate were produced using 2-ethylhexanol comprising the specified antioxidant.

[3] = Stability: aldehyde impurity levels in 2-ethylhexanol admixed with antioxidant, heated at 50° C., analysed by GC; format: physicochemical; conditions: 10 ppm in 2-ethylhexanol, heated conditions (50° C.)
Procedure: Experimental trials were conducted in accordance with the present method. The effects of antioxidants on aldehyde impurity levels in 2-ethlyhexanol were analyzed. A fixed volume of 2-ethylhexanol was admixed with an antioxidant and was heated at 50° C. for three weeks in a hot metal block. The 50° C. temperature mimicked harsh weather conditions during which accelerated autoxidation can occur. At the end of each week (intervals of 168 hours), a sample was drawn and analyzed using gas chromatography (GC). A control sample (where antioxidant was not added) was also analyzed. Lowinox™ CA22 was further examined at lower concentrations of 10 ppm and 20 ppm.

[4] = 2-ethylhexanol with 10 ppm antioxidant

For `CC(C)(C)c1ccc(OP(Oc2ccc(C(C)(C)C)cc2C(C)(C)C)Oc2ccc(C(C)(C)C)cc2C(C)(C)C)c(C(C)(C)C)c1` [Alkanox™ 240, phenol, 2,4-bis(1,1-dimetylethyl)-phosphite (3:1)], the “Solubility in 2-ethylhexanol” value [1] was “not soluble”.

In the case of `Cc1cc(O)c(C(C)(C)C)cc1C(C)CC(c1cc(C(C)(C)C)c(O)cc1C)c1cc(C(C)(C)C)c(O)cc1C` (stereo not drawn) [Lowinox™ CA22, 1,1,3-tris(2′-methyl-4′-hydroxy-5′-t-butylphenyl)butane], the “Platinum-Cobalt score of resulting DOP” value [2, 4] is reported as 20, the “Platinum-Cobalt score of resulting TOTM” value [2, 4] is reported as 28 and the “Platinum-Cobalt score of resulting TOTM” value ([2]; 2-ethylhexanol with 50 ppm antioxidant) is reported as 30. The “Solubility in 2-ethylhexanol” value [1] was “soluble” and the “Time for which aldehyde growth was stopped” value [3] was “over 3 weeks”.
